The results in this text go back to US11535939B2, “Surface treatment method for copper or copper alloy, surface treatment liquid for sterilizing copper or copper alloy, and sterilization method using copper or copper alloy treated by said method” (NATIONAL INSTITUTE FOR MATERIALS SCIENCE, priority 2017, dated 2022).

The test system of the experiment is Escherichia coli (E. coli). As to the kind of experiment: Simple test for antimicrobial activity using E. coli based on JIS Z2801 (0.9% NaCl, fluorescent dye viability). It counts as cell-based. The settings on record: Example 5, FIG. 8, Cu sample piece, 5 minutes after seeding. An excerpt: In this Example, effects of GSH, which is a biological reducing substance, on antimicrobial activity of copper and copper alloys were studied by a simple test for antimicrobial activity using E. coli based on the test for antimicrobial activity specified in JIS Z2801. As shown in FIG. 6(a), first, a copper (Cu) sample piece (15 mm square) was placed on the bottom surface of a glass container. Next, on the upper surface of the sample piece, 0.9% NaCl (−GSH) not containing GSH as a solvent or a 0.9% NaCl solution (+GSH) containing GSH at a concentration of 1.0 mM as a solvent was used to seed about 1.0×10^6 cells/50 μL of E. coli. This bacterial suspension was covered with a polyethylene (PE) sheet so as not to dry the bacterial suspension. Then, the glass container was placed under static culture condition of 35±1° C. The PE sheet was removed 0 minute (immediately after seeding), 5 minutes, and 10 minutes after seeding of E. coli, and 1 mL of 0.9% NaCl+0.1 mM EDTA-2Na was added to the bacterial suspension, and the bacterial suspension was collected by pipetting. A fluorescent dye was added to the collected bacterial suspension, and viability of E. coli was determined by measuring fluorescence intensity. In order to avoid a contact between the back surface of the Cu sample piece and the solution when collecting E. coli, the back surface of the Cu sample piece was coated with a thin silicone sheet in advance. […] GSH was added at a concentration of 0 mM (no addition), 1.0 mM, 2.0 mM, and 10.0 mM, and the results are shown in this order from the left. In FIG. 8, the longitudinal axis represents a ratio of bacterial viability (relative viability) normalized to the bacterial viability in the control test as 1. […] Note that the time from seeding of E. coli to collection of a bacterial suspension was set to 5 minutes.

Take `N[C@@H](CCC(=O)N[C@@H](CS)C(=O)NCC(=O)O)C(=O)O` [GSH, Reduced glutathione]: the “bacterial viability (relative viability)” value reads like this: (GSH 1.0 mM) “decreased more than a case without GSH”; (GSH 2.0 mM) “equivalent or greater than the result without GSH”; (GSH 10.0 mM) “equivalent or greater than the result without GSH”.
